# Measurements reported in patent publication US7109341B2, “Therapeutic amides” (Wayne State University, priority 2002, dated 2006).
# Values joined by “and” are separate entries in the source; they are usually repeats but may differ in a detail not shown here. Equal values may be shown once. Read-outs that look alike come from different tables or passages of the source.
# Columns and labels:
# [1] = test system: Pancreatic Ductal Adenocarcinoma 03; assay: Evaluation against early stage Pancreatic Ductal Adenocarcinoma 03, IP route, C57 females (Table 9); type: in vivo
# Procedure: The IP route was used for two reasons. […] This is approximately 40% of the dose given IV with the racemic mix (60 mg/kg, see Table 7).
# [2] = Water solubility noted on drug preparation for injection; type: physicochemical
# Procedure: (§1) Compounds as their sodium salts were prepared in a 1% sodium bicarbonate solution, H2O or phosphate buffered saline (PBS), with pH adjusted to 7.0 to 7.5 with HCl, and administered intravenously (IV) or orally (PO), at injection volumes of 0.2 mL per injection.
# [3] = test system: Pancreatic Ductal Adenocarcinoma 03; conditions: footnote, no dose given; cited from earlier work;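 for T/C: mice carrying bilateral subcutaneous tumors, with tumor weight estimated from two-dimensional caliper readings taken twice a week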;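 for activity rating: mice carrying bilateral subcutaneous tumors, with tumor weight estimated from two-dimensional caliper readings taken twice a week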
# [4] = test system: Mammary Adenocarcinoma 17/ADR; assay: Evaluation against early stage Mammary Adenocarcinoma 17/ADR, C3H/He females (Table 3); type: in vivo; conditions: Cage 2; IV; 7.5 mg/kg/inj days 1, 7; total 15 mg/kg
# [5] = test system: Mammary Adenocarcinoma 16/C; conditions: Cage 4, IV, qd 1–5, total 240 mg/kg
# Source text: Table 7. […] The animal was then re-implanted with Mam16/C/71.
# [6] = test system: Mammary Adenocarcinoma 16/C
# Source text: (§2) Pancreatic ductal adenocarcinoma-03, mammary adenocarcinoma-16/C, mammary adenocarcinoma-17/Adr, and human melanoma LOX were used in the studies. Tumors were maintained in the mouse strain of origin (C57B1/6 for Panc-03 and C3H for the mammary tumors). Balb/c SCID mice (B and T cell deficient) were used for tumor maintenance and chemotherapy trials involving the human melanoma LOX. Tumors were transplanted into the appropriate F1 hybrid (B6D2F1=C57B 1/6 female× DBA/2 male) or the strain of origin for the chemotherapy trials. Individual mouse body weights for each experiment were within 5 grams, and all mice were over 17 grams at the start of therapy. The mice were supplied food and water ad libitum.
# (§3) Animals were pooled, implanted subcutaneously with 30 to 60 mg tumor fragments by a 12 gauge trocar on day 0, and again pooled before unselective distribution to the various treatment and control groups. For early stage treatment, chemotherapy was started within 1 to 3 days after tumor implantation while the number of cells was relatively small (10^7 to 10^8 cells). For upstaged or advanced staged trials, the tumors were allowed to grow for five or more days before treatment was started. Tumors were measured with a caliper twice weekly. […] Tumor weights are estimated from two-dimensional measurements:
# (§4) Tumor weight (in mg)=(a×b^2)/2, where a and b are the tumor length and width in (mm), respectively.
# a) Tumor growth delay (T−C value), where T is the median time (in days) required for the treatment group tumors to reach a predetermined size (e.g., 1,000 mg), and C is the median time (in days) for the control group tumors to reach the same size. Tumor-free survivors were are excluded from these calculations (cures are tabulated separately).
# (§5) b) Calculation of tumor cell kill for subcutaneously (SC) growing tumors. […] The conversion of the T−C values to log10 cell kill is possible because the Td of tumors re-growing post treatment (Rx) approximates the Td values of the tumors in untreated control mice.
# (§6) It should be noted that an activity rating of +++ to ++++ is needed to effect partial regression (PR) or complete regression (CR) of 100 to 300 mg size masses of most transplanted solid tumors of mice. Thus, an activity rating of + or ++ would not be scored as active by usual clinical criteria. A PR is a reduction in tumor mass to less than 50% of pretreatment size. A CR is a reduction in tumor mass to below palpable size (i.e., reduction to zero detectable mass).
# (§7) The T/C value in percent is an indication of anti-tumor effectiveness: A T/C=0% means no tumor growth. A T/C=100% means no anti-tumor activity, i.e., the treated and control tumors grew equally. […] A T/C value<10% is considered to indicate highly significant anti-tumor activity, and is the level used by NCI to justify a clinical trial if toxicity, formulation, and certain other requirements are met (termed DN-2 level activity).
# as §1
# [7] = test system: Pancreatic Ductal Adenocarcinoma 03; conditions: for Comments (Active/Inactive) / Comments (activity rating) / Drug Death / Log Cell Kill / Median Tumor Burden in mg on d17 / T-C / T/C % / Time to 1000 mg / Tumor Free on 148: BDF1 males;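 for T/C: mice carrying bilateral subcutaneous tumors, with tumor weight estimated from two-dimensional caliper readings taken twice a week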;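 for activity rating: mice carrying bilateral subcutaneous tumors, with tumor weight estimated from two-dimensional caliper readings taken twice a week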
# Source text: as §2, §3, §4
# a) Tumor growth delay (T−C value), where T is the median time (in days) required for the treatment group tumors to reach a predetermined size (e.g., 1,000 mg), and C is the median time (in days) for the control group tumors to reach the same size. Tumor-free survivors were are excluded from these calculations (cures are tabulated separately). This value is an important criterion of anti-tumor effectiveness because it allows the quantification of tumor cell kill.
# as §5, §6, §7, §1
# Thus, for this test, all compounds initially were to be given IP, in an attempt to identify a suitable alternate route of administration.
# [8] = Cage 2, BID3–5, total 450 mg/kg
# [9] = Cage 3, BID3–7, total 450 mg/kg
# [10] = Cage 5, Qd3–7, total 157.5 mg/kg
# [11] = Cage 2, IV, Q2Dx8, total 480 mg/kg
# [12] = Cage 11, IP, 80 mg/kg/inj days 3, 5, 11, 13, 15, total 400 mg/kg
# [13] = Cage 12, IP, 50 mg/kg/inj Q2d×7 from day 3, total 350 mg/kg
# [14] = IP, Q2d: 3–15, total dosage 350 mg/kg
# [15] = IP, d3, 5, 11, 13, 15, total dosage 400 mg/kg
structure (smiles),measurement,setting,value
"CC(Oc1ccc(Oc2ccc3ccc(Br)cc3n2)cc1)C(=O)NCCS(=O)(=O)[O-].[Na+] [Compound 14g (R), Sodium (2-(4-(7-bromo-2-quinolinyl)oxy)phenoxy) propionylamino ethanesulfonate]",Day of Wt. Loss Nadir,[1]; [8],9 days
same,Drug Death (day of death),[1]; [8],one drug death and 1/5
same,Log Cell Kill,[1]; [8],1.52
same,Mean Body Wt. Loss in g/mouse,[1]; [8],−4.4 g/mouse
same,Median Tumor Burden in mg on d14 (range),[1]; [8],0 mg
same,T-C,[1]; [8],10.75 days
same,T/C %,[1]; [8],0%
same,Time to 1000 mg in days (range),[1]; [8],24.75 days
same,Tumor Free on d31,[1]; [8],0/5
same,day of body weight recovery,[1]; [8],≤ 17 days
same,toxicity observations,[1]; [8],increased urinary output and a sunken appearance
same,Day of Wt. Loss Nadir,[1]; [9],9 days
same,Drug Death (day of death),[1]; [9],0/5
same,Log Cell Kill,[1]; [9],1.72
same,Mean Body Wt. Loss in g/mouse,[1]; [9],−1.2 g/mouse
same,Median Tumor Burden in mg on d14 (range),[1]; [9],126 mg
same,T-C,[1]; [9],12 days
same,T/C %,[1]; [9],12.6%
same,Time to 1000 mg in days (range),[1]; [9],26 days
same,Tumor Free on d31,[1]; [9],0/5
same,water solubility,[2],Low water solubility limits
same,solubility limit,[2]; expressed as injectable dose,25 mg/kg (0.2 ml/inj)
CC(=O)O[C@H]1C(=O)[C@@]2(C)[C@H]([C@H](OC(=O)c3ccccc3)[C@]3(O)C[C@H](OC(=O)[C@H](O)[C@@H](NC(=O)c4ccccc4)c4ccccc4)C(C)=C1C3(C)C)[C@]1(OC(C)=O)CO[C@@H]1C[C@@H]2O [Taxol],sensitivity of this tumor to standard agents (activity rating),[3],This tumor is highly sensitive to Taxol (++++ activity rating). (Highly active >2.8)
"COc1cccc2c1C(=O)c1c(O)c3c(c(O)c1C2=O)C[C@@](O)(C(=O)CO)C[C@@H]3O[C@H]1C[C@H](N)[C@H](O)[C@H](C)O1 [Adriamycin, reference compound]",% Body Wt Loss at Nadir,[4],−1.4%
same,% T/C mass,[4],90%
same,Activity Rating,[4],inactive
same,Day of Nadir,[4],7 days
same,Drug Deaths,[4],0/5
same,Growth Delay,[4],0 days
same,Log Kill,[4],none
same,Median Tumor Mass on Day 9 (Range),[4],1086
same,Tumor Free day-21,[4],0/5
same,sensitivity of this tumor to standard agents (activity rating),[3],It is nicely sensitive to Adriamycin (+++ activity). (2.0–2.8)
CC[C@]1(O)C[C@@H]2CN(CCc3c([nH]c4ccccc34)[C@@](C(=O)OC)(c3cc4c(cc3OC)N(C)[C@H]3[C@@](O)(C(=O)OC)[C@H](OC(C)=O)[C@]5(CC)C=CCN6CC[C@]43[C@@H]65)C2)C1 [Vinblastine],sensitivity of this tumor to standard agents (activity rating),[3],It is insensitive to Vinblastine.
"O=c1[nH]cc(F)c(=O)[nH]1 [Compound 5-FU, 5-FU]",sensitivity of this tumor to standard agents (activity rating),[3],It is modestly responsive to 5-FU (+ activity). (0.7–1.2)
"CC(Oc1ccc(Oc2ccc3ccc(Br)cc3n2)cc1)C(=O)O [Compound 11c (R), 2-{4-{(7-bromo-2-quinolinyl)oxy}phenoxy}propionic acid, reference compound]",Day of Wt. Loss Nadir,[5],9 days
same,Drug Death (day of death),[5],One animal died and 1/5
same,Log Cell Kill,[5],1.8
same,Mean Body Wt. Loss in g/mouse,[5],−6.0 g/mouse
same,Median Tumor Burden in mg on d 9 (range),[5],0 mg
same,Percent Body Weight Loss,[5],−29.4%
same,T-C,[5],7.2 days
same,T/C %,[5],0%
same,"Time to 1,000 mg in days (range)",[5],15.2 days
same,Tumor Free on d 161,[5],0/5
same,day of body weight recovery,[5],≤ 13 days
same,toxicity observations,[5],diarrhea
same,body weight loss day 6,[5]; day 6,−17.5%
same,Comments (activity rating),"[1]; Cage 4, Qd3–7, total 260 mg/kg",LD20
same,Day of Wt. Loss Nadir,"[1]; Cage 4, Qd3–7, total 260 mg/kg",10 days
same,Drug Death (day of death),"[1]; Cage 4, Qd3–7, total 260 mg/kg",One drug death and 1/5
same,Log Cell Kill,"[1]; Cage 4, Qd3–7, total 260 mg/kg",1.5
same,Mean Body Wt. Loss in g/mouse,"[1]; Cage 4, Qd3–7, total 260 mg/kg",−3.2 g/mouse
same,Median Tumor Burden in mg on d14 (range),"[1]; Cage 4, Qd3–7, total 260 mg/kg",126 mg
same,Percent Body Weight Loss,"[1]; Cage 4, Qd3–7, total 260 mg/kg",−16.7%
same,T-C,"[1]; Cage 4, Qd3–7, total 260 mg/kg",10.5 days
same,T/C %,"[1]; Cage 4, Qd3–7, total 260 mg/kg",12.6%
same,Time to 1000 mg in days (range),"[1]; Cage 4, Qd3–7, total 260 mg/kg",24.5 days
same,Tumor Free on d31,"[1]; Cage 4, Qd3–7, total 260 mg/kg",0/5
same,day of full body weight recovery,"[1]; Cage 4, Qd3–7, total 260 mg/kg",≤ 17 days
same,Day of Wt. Loss Nadir,[1]; [10],9 days
same,Drug Death (day of death),[1]; [10],0/5
same,Log Cell Kill,[1]; [10],1.58
same,Mean Body Wt. Loss in g/mouse,[1]; [10],−0.0 g/mouse
same,Median Tumor Burden in mg on d14 (range),[1]; [10],260 mg
same,T-C,[1]; [10],11 days
same,T/C %,[1]; [10],26%
same,Time to 1000 mg in days (range),[1]; [10],25 days
same,Tumor Free on d31,[1]; [10],0/5
same,Preparation: state of the injection preparation,"[2]; white solid + 3% EtOH + 1% POE + 0.25% NaHCO3 + saline, pH = 9 → 7 with 1N HCl","Compound 11c (R): white solid + 3% EtOH + 1% POE + 0.25% NaHCO3 + saline → solution (pH = 9 → 7 with 1N HCl); 0.5 ml/mouse/inj, IP."
same,Drug Death (day of death),[6]; [11],0/5
same,Log Cell Kill,[6]; [11],4.8
same,Median Tumor Burden in mg on day 7 (range),[6]; [11],0 mg
same,T-C,[6]; [11],16 days
same,T/C %,[6]; [11],0%
same,Time to 1000 mg in days (range),[6]; [11],22 days
same,Tumor Free on d28,[6]; [11],no cures and 0/5
same,Day of Wt. Loss Nadir,"[6]; mouse, in vivo",14 days
same,Percent Body Weight Loss,"[6]; mouse, in vivo",−4.3%
same,Activity Rating,[7]; [12],++++ (Highly active >2.8)
same,T/C,[7]; [12],0%
same,log cell kill,[7]; [12],3.3
same,tumor free on day 148,[7]; [12],1/5 and One mouse remained tumor free
same,Activity Rating,[7]; [13],++ (1.3–1.9)
same,T/C,[7]; [13],3%
same,log kill,[7]; [13],1.4
same,Comments (Active/Inactive),[7]; [14],Active
same,Comments (activity rating),[7]; [14],(++) (1.3–1.9)
same,Drug Death,[7]; [14],0/5
same,Log Cell Kill,[7]; [14],1.4
same,Median Tumor Burden in mg on d17,[7]; [14],63 mg
same,T-C,[7]; [14],10 days
same,T/C %,[7]; [14],3%
same,Time to 1000 mg,[7]; [14],25 days
same,Tumor Free on 148,[7]; [14],0/5
same,Comments (Active/Inactive),[7]; [15],Active
same,Comments (activity rating),[7]; [15],(++++) (Highly active >2.8)
same,Drug Death,[7]; [15],0/5
same,Log Cell Kill,[7]; [15],3.3
same,Median Tumor Burden in mg on d17,[7]; [15],0 mg
same,T-C,[7]; [15],23 days
same,T/C %,[7]; [15],0%
same,Time to 1000 mg,[7]; [15],38 days
same,Tumor Free on 148,[7]; [15],1/5
same,Day of Wt. Loss Nadir,"[7]; mouse, in vivo",9 days and 8 days
same,day of full weight recovery,"[7]; mouse, in vivo",16 days and 11 days
same,day of weight loss nadir,"[7]; mouse, in vivo",9 days and 8 days
